The subject of one data set is HIV-1 strain IIIB. The format is cell-based, human immunodeficiency virus type 1. The conditions noted are these: for EC50: 2 h exposure. On the procedure: Peptide effectiveness was determined in an HIV-1 infection inhibition assay using P4-R5 MAGI indicator cells. […] The cells were then infected with HIV-1 strain IIIB (Advanced Biotechnologies, Inc., Columbia, MD; 10^7.8 TCID50/mL) at multiplicities of infection (MOI) of 0.6, 0.05, or 0.03 in the presence or absence of peptide or dextran sulfate (DS) (Sigma, St. Louis, MO). Following a 2 h incubation at 37°C, the cells were washed with PBS, provided with 200 μL of new media, and incubated for an additional 46 h. Levels of infection were measured using the Galacto-Star-β-Galactosidase Reporter Gene Assay System for Mammalian Cells (Applied Biosystems, Carlsbad, CA) as described by the manufacturer. Chemiluminescence was measured using a Glomax Luminometer plate reader (Promega, Madison, WI).

In a further data set the test system is P4-R5 MAGI cells. The following applies: 2 h exposure at concentrations below 1 mg/mL; MTT immediately after exposure or 24 h or 48 h after exposure; two independent assays in quadruplicate. On the procedure:
P4-R5 MAGI cells were plated at a concentration of 1.5 × 10^4 cells/well in a flat-bottom 96-well plate. The cells were then exposed to the indicated half log concentrations of peptide and incubated at 37°C for 2 h. Following exposure, the cells were washed with PBS and then assayed for cell viability immediately or at 24 h or 48 h after exposure. Viability was measured using a 3-(4,5-dimethylthiazol-2-yl)-2,5-diphenyltetrazolium bromide (MTT) assay as previously described.
Mean values and standard deviations were calculated from two independent assays in which each concentration was examined in quadruplicate.

For data set [1] the following is noted: exposure durations as long as 48 h, not conjugated to payload; cited from earlier work.
The test system of a further data set is HIV-1. The following applies: preliminary studies, data not shown.

In brackets after ≈: the same amount, converted by molar mass. Read-outs that look alike come from different tables or passages of the source. No end group written: not given here.

By EC50 is commonly meant the concentration needed to bring the measured effect to its halfway point. Higher therefore signals a need for much substance.

As for `N=C(N)NCCC[C@H](NC(=O)[C@H](CCCNC(=N)N)NC(=O)[C@H](CCCNC(=N)N)NC(=O)[C@H](CCCNC(=N)N)NC(=O)[C@H](CCCNC(=N)N)NC(=O)[C@H](CCCNC(=N)N)NC(=O)[C@H](CCCNC(=N)N)NC(=O)[C@H](CCCNC(=N)N)NC(=O)[C@H](CCCNC(=N)N)NC(=O)[C@@H](N)CCCNC(=N)N)C(=O)O` [R-10, decaarginine], in the data set with HIV-1 strain IIIB (strain IIIB, 2 h), the “EC50 (concentration that resulted in 50% reduction in infection relative to mock-treated, HIV-1-infected cells)” value came out at 14 µg/mL (≈ 8.86 µM).
For the molecule `N=C(N)NCCC[C@H](NC(=O)[C@H](CCCNC(=N)N)NC(=O)[C@H](CCCNC(=N)N)NC(=O)[C@H](CCC(N)=O)NC(=O)[C@H](CCCNC(=N)N)NC(=O)[C@H](CCCNC(=N)N)NC(=O)[C@H](CCCCN)NC(=O)[C@H](CCCCN)NC(=O)[C@H](CCCNC(=N)N)NC(=O)CN)C(=O)O` [Tat peptide], the “effect on P4-R5 MAGI cell viability” value in the data set on P4-R5 MAGI cells is “no effect”. For the same molecule, the EC50 stood at 140 µg/mL in the data set on HIV-1 strain IIIB (HIV-1 IIIB, 0.05 MOI (8.8 x 10^3 infectious virions/mL), P4-R5 MAGI cells) and 50 µM in the data set with HIV-1 strain IIIB (HIV-1 IIIB, 0.6 MOI, P4-R5 MAGI cells, same value as 0.094 mg/mL in molar units). Further, the “concentration up to which peptide alone had no effect on cell viability” value in data set [1] was “up to 100 μM”.
Consider RRKKRRRRRR [TPvar3], for which the “EC50 (concentration that resulted in 50% reduction in infection relative to mock-treated, HIV-1-infected cells)” value with HIV-1 strain IIIB (strain IIIB, 2 h) worked out at 25 µg/mL.
Turning to dextran sulfate [reference compound], the “EC50 (concentration that resulted in 50% reduction in infection relative to mock-treated, HIV-1-infected cells)” value in the data set with HIV-1 strain IIIB (HIV-1 IIIB, 0.6 MOI, P4-R5 MAGI cells, 2 h exposure with virus, wash, further 46 h, beta-galactosidase chemiluminescence, two independent assays in quadruplicate) was found to be 0.7 µg/mL.
For nona-arginine, the anti-HIV-1 activity entry in the data set on HIV-1 was “anti-HIV-1 activity”.
